In patent US12668585B2, “Substituted pyrimidinyl-pyrazoles as CDK2 inhibitors” (BLUEPRINT MEDICINES CORPORATION, priority 2021, dated 2026):
Where two headings read alike, the source gives them in different places.

Tests used:
CDK2/Cyclin E = molecular target: T1, CDK2/Cyclin E (Homo sapiens, UniProt P24941); test: Biochemical CDK inhibition assay (Caliper mobility shift), CDK2/Cyclin E; conditions: read-out: CDK2/cyclin E1 IC50
T1 construct: purchased Eurofins 14-475
Experimental: (§1) Inhibitory effects of the compounds of the disclosure were measured in biochemical assays that measure the enzymatic phosphorylation activity of CDK enzyme in complex of Cyclin proteins phosphorylates 7.5 micromolar fluorescently labelled peptide substrate, 5-FAM-QSPKKG-CONH2, (FL-Peptide 18, Perkin Elmer, 760362) in the presence of adenosine-5′-triphosphate (ATP) and varying concentrations of the test compound in 100 mM 2-[4-(2-hydroxyethyl)piperazin-1-yl] ethanesulfonic acid (HEPES), pH 7.5, 10 mM MgCl2, 0.015% Brij-35, 1 mM dithiothreitol (DTT), 1.0% dimehylsulfoxide (DMSO). […] Reactions proceeded until between 10% to 20% total peptides were phosphorylated at room temperature (25° C.) and were terminated with 35 mM 2,2′,2″,2′″-(ethane-1,2-diyldinitrilo)tetraacetic acid (EDTA). Product was detected using the Caliper mobility shift detection method where the phosphorylated peptide (product) and substrate were electrophoretically separated and measured. Percent activity was plotted against log concentration of compound and points to generate an apparent IC50. The following CDK enzymes in complex with different cyclin proteins were used in these assays: • CDK1/Cyclin B1, GST-tag (BPS, 40454), 1.5 nM used in the assay • CDK2/Cyclin E (Eurofins, 14-475), 1.25 nM used in the assays
(§2) For inhibitory activity against CDK2/Cyclin E mutant, the following designations are used: ≤10 nM=A; >10-20 nM=B; >20-30 nM=C; >30-100 nM=D and >100=E. For inhibition CDK1/Cyclin B1, GST-tag: ≥500 nM=A; <100-500 nM=B; <100 nM=C.

CDK1/Cyclin B1, GST-tag = molecular target: T2, CDK1/Cyclin B1, GST-tag (Homo sapiens, UniProt P06493); test: Biochemical CDK inhibition assay (Caliper mobility shift), CDK1/Cyclin B1
T2 construct: GST; purchased BPS 40454
Experimental: as §1, §2

T2 sequence (P06493 whole entry): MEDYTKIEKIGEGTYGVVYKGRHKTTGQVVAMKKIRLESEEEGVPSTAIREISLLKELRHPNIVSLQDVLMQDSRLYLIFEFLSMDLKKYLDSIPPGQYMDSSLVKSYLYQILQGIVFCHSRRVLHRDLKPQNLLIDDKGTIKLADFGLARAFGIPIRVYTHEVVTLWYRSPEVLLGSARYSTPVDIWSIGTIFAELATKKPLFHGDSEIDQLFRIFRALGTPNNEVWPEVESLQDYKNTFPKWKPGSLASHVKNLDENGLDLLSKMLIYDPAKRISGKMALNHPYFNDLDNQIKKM
T2 sequence (P14635 whole entry partner): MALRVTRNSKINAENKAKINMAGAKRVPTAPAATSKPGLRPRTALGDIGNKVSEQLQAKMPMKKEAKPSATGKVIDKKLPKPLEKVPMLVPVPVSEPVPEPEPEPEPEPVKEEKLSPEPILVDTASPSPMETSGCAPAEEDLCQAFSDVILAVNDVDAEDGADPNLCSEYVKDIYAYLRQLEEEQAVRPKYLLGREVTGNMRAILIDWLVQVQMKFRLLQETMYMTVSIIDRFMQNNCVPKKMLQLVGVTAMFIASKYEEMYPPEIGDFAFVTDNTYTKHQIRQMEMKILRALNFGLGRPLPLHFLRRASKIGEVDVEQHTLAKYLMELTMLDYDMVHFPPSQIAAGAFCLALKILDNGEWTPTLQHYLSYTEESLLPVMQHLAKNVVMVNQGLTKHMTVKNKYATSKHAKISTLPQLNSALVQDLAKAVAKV

Molecule	IC50 (CDK2/Cyclin E; apparent IC50, 1.25 nM enzyme, 1.0 mM ATP or ATP Km, 7.5 micromolar FL-Peptide 18, 25° C.) [nM]	IC50 (CDK1/Cyclin B1, GST-tag; apparent IC50, 1.5 nM enzyme, 1.0 mM ATP or ATP Km, 7.5 micromolar FL-Peptide 18, 25° C.) [nM]	IC50 (CDK2/Cyclin E) [nM]	IC50 (CDK1/Cyclin B1, GST-tag) [nM]
3-fluoro-4-((4-(1-(2-hydroxyethyl)-1H-pyrazol-4-yl)-5-(trifluoromethyl)pyrimidin-2-yl)amino)benzenesulfonamide or 3-fluoro-4-((2-(1-(2-hydroxyethyl)-1H-pyrazol-4-yl)-5-(trifluoromethyl)pyrimidin-4-yl)amino)benzenesulfonamide [Example 33]	10 to 20	≥ 500	–	–
C[C@H](n1cc(-c2nc(Nc3ccc(S(N)(=O)=O)cc3F)ncc2C(F)(F)F)cn1)C(C)(C)O (single isomer, unassigned) [Example 6, (S)-3-fluoro-4-((4-(1-(3-hydroxy-3-methylbutan-2-yl)-1H-pyrazol-4-yl)-5-(trifluoromethyl)pyrimidin-2-yl)amino)benzenesulfonamide or (R)-3-fluoro-4-((4-(1-(3-hydroxy-3-methylbutan-2-yl)-1H-pyrazol-4-yl)-5-(trifluoromethyl)pyrimidin-2-yl)amino)benzenesulfonamide]	–	–	≤ 10	< 100
C[C@@H](n1cc(-c2nc(Nc3ccc(S(N)(=O)=O)cc3F)ncc2C(F)(F)F)cn1)C(C)(C)O (single isomer, unassigned) [Example 7, (R)-3-fluoro-4-((4-(1-(3-hydroxy-3-methylbutan-2-yl)-1H-pyrazol-4-yl)-5-(trifluoromethyl)pyrimidin-2-yl)amino)benzenesulfonamide or (S)-3-fluoro-4-((4-(1-(3-hydroxy-3-methylbutan-2-yl)-1H-pyrazol-4-yl)-5-(trifluoromethyl)pyrimidin-2-yl)amino)benzenesulfonamide]	–	–	≤ 10	100 to 500
C[C@H](O)[C@H](C)n1cc(-c2nc(Nc3ccc(S(N)(=O)=O)cc3F)ncc2C(F)(F)F)cn1 (single isomer, unassigned) [Example 9]	–	–	≤ 10	100 to 500
C[C@@H](O)[C@H](C)n1cc(-c2nc(Nc3ccc(S(N)(=O)=O)cc3F)ncc2C(F)(F)F)cn1 (single isomer, unassigned) [Example 13]	–	–	≤ 10	100 to 500
C[C@H](O)[C@@H](C)n1cc(-c2nc(Nc3ccc(S(N)(=O)=O)cc3F)ncc2C(F)(F)F)cn1 (single isomer, unassigned) [Example 15]	–	–	≤ 10	100 to 500
C[C@H]([C@@H](C)O)n1cc(-c2nc(Nc3ccc(S(N)(=O)=O)cc3F)ncc2C(F)(F)F)cn1 (single isomer, unassigned) [Example 25]	–	–	≤ 10	100 to 500
Cc1cc(S(N)(=O)=O)ccc1Nc1ncc(C(F)(F)F)c(-c2cnn(CC(C)(C)O)c2)n1 [Example 2, 4-((4-(1-(2-hydroxy-2-methylpropyl)-1H-pyrazol-4-yl)-5-(trifluoromethyl)pyrimidin-2-yl)amino)-3-methylbenzenesulfonamide]	–	–	≤ 10	100 to 500
CC(C)(O)Cn1cc(-c2nc(Nc3ccc(S(N)(=O)=O)cc3)ncc2Cl)cn1 [Example 3, 4-((5-chloro-4-(1-(2-hydroxy-2-methylpropyl)-1H-pyrazol-4-yl)pyrimidin-2-yl)amino)benzenesulfonamide]	–	–	≤ 10	< 100
CC(C)(O)Cn1cc(-c2nc(Nc3ccc(S(N)(=O)=O)cc3)ncc2C(F)F)cn1 [Example 4, 4-((5-(difluoromethyl)-4-(1-(2-hydroxy-2-methylpropyl)-1H-pyrazol-4-yl)pyrimidin-2-yl)amino)benzenesulfonamide]	–	–	≤ 10	< 100
CC(C)(O)Cn1cc(-c2nc(Nc3ccc(S(N)(=O)=O)cc3)ncc2C(F)(F)F)cn1 [Example 5, 4-((4-(1-(2-hydroxy-2-methylpropyl)-1H-pyrazol-4-yl)-5-(trifluoromethyl)pyrimidin-2-yl)amino)benzenesulfonamide]	–	–	≤ 10	< 100
CC(C)(O)Cn1cc(-c2nc(Nc3ccc(S(N)(=O)=O)cc3)ncc2C#N)cn1 [Example 8, 4-((5-cyano-4-(1-(2-hydroxy-2-methylpropyl)-1H-pyrazol-4-yl)pyrimidin-2-yl)amino)benzenesulfonamide]	–	–	≤ 10	< 100
